Molecular target: T1, glucocerebrosidase (Gcase) (Homo sapiens, UniProt P04062)
T1 construct: micellar solution containing 10 nM GCase and 100 nM saposin C
T1 sequence (P04062 40-536): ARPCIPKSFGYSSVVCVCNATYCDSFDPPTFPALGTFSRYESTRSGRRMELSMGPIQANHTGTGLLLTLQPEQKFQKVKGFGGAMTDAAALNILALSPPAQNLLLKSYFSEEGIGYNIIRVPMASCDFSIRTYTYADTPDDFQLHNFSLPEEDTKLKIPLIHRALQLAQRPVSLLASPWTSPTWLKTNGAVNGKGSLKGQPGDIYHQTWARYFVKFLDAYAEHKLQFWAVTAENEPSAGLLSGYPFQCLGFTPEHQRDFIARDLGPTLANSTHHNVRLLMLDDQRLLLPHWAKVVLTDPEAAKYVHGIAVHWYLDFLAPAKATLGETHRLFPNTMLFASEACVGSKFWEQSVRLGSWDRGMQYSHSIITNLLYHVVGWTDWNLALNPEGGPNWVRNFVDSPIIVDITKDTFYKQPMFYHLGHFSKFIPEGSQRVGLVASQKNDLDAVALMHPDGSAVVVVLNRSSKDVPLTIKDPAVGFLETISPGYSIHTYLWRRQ
Assay: Glucocerebrosidase (Gcase) activation assay with 4-methylumbelliferyl-beta-D-glucopyranoside substrate, saposin C and phosphatidylserine/triton micelles, fluorescence readout
Assay type: biochemical
Description: The ability of exemplary compounds to activate glucocerebrosidase (Gcase) was measured.
A 484 μL aliquot of a 1.0 mg/mL solution of phosphatidylserine (PS) (Sigma P7769) in chloroform was evaporated under a stream of nitrogen for 1 hour. The lipid film was dissolved over 4 minutes of vigorous vortexing in 40 mL of 176 mM K2HPO4/50 mM citric acid (pH 4.7) containing 7.5 μL of triton X-100, resulting in a mixed micellar preparation with a composition of 0.32 mM triton and 0.37 mol % PS. 4-Methylumbelliferyl-beta-D-glucopyranoside (ACROS-337025000) was dissolved in the micellar solution to a final concentration of 2 mM for use as the reaction substrate.
Test compounds were diluted to the desired concentrations with dimethylsulfoxide (DMSO) from 10 mM stocks, and 0.41 μL of the DMSO compound mixture was added to 100 μL of micellar solution containing 10 nM GCase and 100 nM saposin C (Enzo ALX-201-262-C050). Pre-incubation was allowed to occur for 30 minutes at room temperature, after which the reaction was initiated by combining 25 μL of substrate solution with 25 μL of compound/GCase/saposin mixture. The reaction proceeded for 15 minutes at room temperature and was stopped by adding 150 μL of 1M glycine, pH 12.5. The endpoint of the reaction was monitored by measuring fluorescence intensity (excitation: 365 nm; emission: 440 nm) on a SpectraMax i3 instrument (Molecular Devices). Test compounds were screened at 1.0 and 0.1 μM final concentration, and subsequent 8-point dose response curves were obtained using 3-fold dilutions from a maximum final concentration of 5 μM.

| Percent Gcase Activation, 0.1 μM Test Compound (test compound at 0.1 μM) | Percent Gcase Activation, 1 μM Test Compound (test compound at 1.0 μM) | Percent Gcase Activation, 0.1 μM Test Compound (0.1 μM test compound) | Percent Gcase Activation, 1 μM Test Compound (1 μM test compound) | SMILES | also measured |
| --- | --- | --- | --- | --- | --- |
| *** (greater than 20% Gcase activation) | +++ (Gcase activation greater than 60%) | – | – | Cc1cc(-n2ccc(F)n2)nc2c(C(=O)N[C@@H](C3CC3)C(F)(F)F)cnn12 [III-174] | – |
| – | – | – | – | C#CC(C)(C)NC(=O)c1cnn2c(C)cc(-c3cccc(OC4CC4)c3)nc12 [III-82] | Percent Gcase Activation, 0.1 μM Test Compound (0.1 μM test compound, Table 3A): *** (greater than 20% Gcase activation); Percent Gcase Activation, 1 μM Test Compound (1 μM test compound, Table 3A): +++ (Gcase activation greater than 60%) |
| – | – | *** (greater than 20% Gcase activation) | +++ (Gcase activation greater than 60%) | Cc1cc(-c2cccc(Cl)c2)nc2c(C(=O)NC(C)(C)C(F)(F)F)cnn12 [III-406] | – |
| – | – | – | – | Cc1cc(C)n2nc(Cl)c(C(=O)N[C@@H](C)C3CC3)c2n1 [III-34] | Percent Gcase Activation, 0.1 μM Test Compound (0.1 μM test compound, Table 3A): * (less than 10% Gcase activation); Percent Gcase Activation, 1 μM Test Compound (1 μM test compound, Table 3A): + (less than 30% Gcase activation) |
| – | – | – | – | Cc1cc(-c2cccc(C#N)c2)nc2c(C(=O)NC(C3CC3)C(F)(F)F)cnn12 (stereo not drawn) [III-72] | Percent Gcase Activation, 0.1 μM Test Compound (0.1 μM test compound, Table 3A): *** (greater than 20% Gcase activation); Percent Gcase Activation, 1 μM Test Compound (1 μM test compound, Table 3A): +++ (Gcase activation greater than 60%) |
| *** (greater than 20% Gcase activation) | +++ (Gcase activation greater than 60%) | – | – | Cc1cc(-c2ccoc2)nc2c(C(=O)NC(C3CC3)C(F)(F)F)cnn12 (stereo not drawn) [III-187] | – |
| *** (greater than 20% Gcase activation) | +++ (Gcase activation greater than 60%) | – | – | Cc1cc(-c2cscc2C#N)nc2c(C(=O)NC(C3CC3)C(F)(F)F)cnn12 (stereo not drawn) [III-188] | – |
| *** (greater than 20% Gcase activation) | +++ (Gcase activation greater than 60%) | – | – | Cc1cc(-c2cncc(F)c2)nc2c(C(=O)N[C@H](C3CC3)C(F)(F)F)cnn12 [III-126] | – |
| *** (greater than 20% Gcase activation) | +++ (Gcase activation greater than 60%) | – | – | Cc1cc(-c2ccc(F)cc2)nc2c(C(=O)NC(C)C(F)(F)F)cnn12 (stereo not drawn) [III-164] | – |
| – | – | – | – | Cc1cc(C)n2ncc(C(=O)N[C@H](C)C3CCCCC3)c2n1 [III-3] | Percent Gcase Activation, 0.1 μM Test Compound (0.1 μM test compound, Table 3A): *** (greater than 20% Gcase activation); Percent Gcase Activation, 1 μM Test Compound (1 μM test compound, Table 3A): +++ (Gcase activation greater than 60%) |
| – | – | * (less than 10% Gcase activation) | +++ (Gcase activation greater than 60%) | CNC(=O)c1cccc(-c2cc(C)n3ncc(C(=O)NC(C4CC4)C(F)(F)F)c3n2)c1 (stereo not drawn) [III-414] | – |
| – | – | – | – | Cc1cc(C)n2ncc(C(=O)NC(C3CC3)C(F)(F)F)c2n1 (stereo not drawn) [III-9] | Percent Gcase Activation, 0.1 μM Test Compound (0.1 μM test compound, Table 3A): ** (Gcase activation in the range of 10% up to 20%); Percent Gcase Activation, 1 μM Test Compound (1 μM test compound, Table 3A): +++ (Gcase activation greater than 60%) |
| *** (greater than 20% Gcase activation) | +++ (Gcase activation greater than 60%) | – | – | COc1cc(-c2cc(C)n3ncc(C(=O)N[C@@H](C)C4CC4)c3n2)ccc1F [III-145] | – |
| *** (greater than 20% Gcase activation) | +++ (Gcase activation greater than 60%) | – | – | Cc1cc(-c2cccc(F)c2)nc2c(C(=O)NC(C3CC3)C(F)(F)F)cnn12 (stereo not drawn) [III-111] | – |
| *** (greater than 20% Gcase activation) | +++ (Gcase activation greater than 60%) | – | – | Cc1cc(N2CCCC(F)(F)C2)nc2c(C(=O)NC(C)C(F)(F)F)cnn12 (stereo not drawn) [III-179] | – |
| – | – | *** (greater than 20% Gcase activation) | +++ (Gcase activation greater than 60%) | Cc1cc(-c2ccc(N3CCOCC3)c(F)c2)nc2c(C(=O)NC(C)C(F)(F)F)cnn12 (stereo not drawn) [III-299] | – |
| – | – | *** (greater than 20% Gcase activation) | +++ (Gcase activation greater than 60%) | Cc1cc(-c2ccc3ncn(C)c3c2)nc2c(C(=O)N[C@H](C3CC3)C(F)(F)F)cnn12 [III-305] | – |
| – | – | *** (greater than 20% Gcase activation) | +++ (Gcase activation greater than 60%) | Cc1cc(-c2cc(F)c3ocnc3c2)nc2c(C(=O)NC(C)C(F)(F)F)cnn12 (stereo not drawn) [III-295] | – |
| – | – | – | – | Cc1cc(-c2cccnc2F)nc2c(C(=O)NC(C3CC3)C(F)(F)F)cnn12 (stereo not drawn) [III-85] | Percent Gcase Activation, 0.1 μM Test Compound (0.1 μM test compound, Table 3A): *** (greater than 20% Gcase activation); Percent Gcase Activation, 1 μM Test Compound (1 μM test compound, Table 3A): +++ (Gcase activation greater than 60%) |
| – | – | *** (greater than 20% Gcase activation) | +++ (Gcase activation greater than 60%) | Cc1ncc(-c2cc(C)n3ncc(C(=O)N[C@@H](C4CC4)C(F)(F)F)c3n2)cc1F [III-381] | – |
| *** (greater than 20% Gcase activation) | +++ (Gcase activation greater than 60%) | – | – | Cc1cc(-c2ccc(F)c(C#N)c2)nc2c(C(=O)N[C@@H](C)C3CC3)cnn12 [III-157] | – |
| – | – | * (less than 10% Gcase activation) | +++ (Gcase activation greater than 60%) | CO[C@H]1CC[C@@H]([C@@H](C)NC(=O)c2cnn3c(C)cc(C)nc23)CC1 [III-404] | – |
| – | – | – | – | Cc1cc(N2CCCCC2)nc2c(C(=O)NC(C)C3CC3)cnn12 (stereo not drawn) [III-31] | Percent Gcase Activation, 0.1 μM Test Compound (0.1 μM test compound, Table 3A): *** (greater than 20% Gcase activation); Percent Gcase Activation, 1 μM Test Compound (1 μM test compound, Table 3A): +++ (Gcase activation greater than 60%) |

| SMILES | Percent Gcase Activation, 0.1 μM Test Compound (test compound at 0.1 μM) | Percent Gcase Activation, 1 μM Test Compound (test compound at 1.0 μM) | Percent Gcase Activation, 0.1 μM Test Compound (0.1 μM test compound) | Percent Gcase Activation, 1 μM Test Compound (1 μM test compound) | also measured |
| --- | --- | --- | --- | --- | --- |
| Cc1cc(-c2cccc(-n3cccn3)c2)nc2c(C(=O)NC(C3CC3)C(F)(F)F)cnn12 (stereo not drawn) [III-415] | – | – | *** (greater than 20% Gcase activation) | ++ (Gcase activation in the range of 30% up to 60%) | – |
| Cc1cc(-c2ccon2)nc2c(C(=O)NC(C3CC3)C(F)(F)F)cnn12 (stereo not drawn) [III-239] | ** (Gcase activation in the range of 10% up to 20%) | +++ (Gcase activation greater than 60%) | – | – | – |
| Cc1cc(-c2cccc(Cl)n2)nc2c(C(=O)N[C@H](C)C(F)(F)F)cnn12 [III-235] | ** (Gcase activation in the range of 10% up to 20%) | +++ (Gcase activation greater than 60%) | – | – | – |
| CO[C@H]1CC[C@H]([C@@H](C)NC(=O)c2cnn3c(C)cc(C)nc23)CC1 [III-403] | – | – | * (less than 10% Gcase activation) | ++ (Gcase activation in the range of 30% up to 60%) | – |
| Cc1nc(-c2cc(C)n3ncc(C(=O)NC(C)(C)C4CC4)c3n2)co1 [III-251] | ** (Gcase activation in the range of 10% up to 20%) | +++ (Gcase activation greater than 60%) | – | – | – |
| Cc1cc(N2CC(C(C)C)OC2=O)nc2c(C(=O)N[C@@H](C3CC3)C(F)(F)F)cnn12 (stereo partly drawn) [III-318] | – | – | ** (Gcase activation in the range of 10% up to 20%) | +++ (Gcase activation greater than 60%) | – |
| Cc1cc(-c2cnccc2F)nc2c(C(=O)NC(C)C(F)(F)F)cnn12 (stereo not drawn) [III-199] | * (less than 10% Gcase activation) | ++ (Gcase activation in the range of 30% up to 60%) | – | – | – |

From patent US10934298B2, “Substituted pyrazolo[1,5-a]pyrimidines for the treatment of medical disorders” (BIAL—BioTech Investments, Inc., priority 2016, dated 2021)
